# Data taken from PubChem BioAssay AID1259411 (Chemical Carcinogenesis Research Information System (CCRIS), 2018).
# Calls of active or inactive are those of the source. The rule behind the calls is not given here.
# Test system: rodent carcinogenicity bioassays, tumor incidence
# Experiment: CCRIS carcinogenicity studies
# How it was run: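 Archive of carcinogenicity, mutagenicity, tumor promotion and tumor inhibition results drawn from journals, NCI reports and other sources, expert-reviewed; covers 1985-2011 and is no longer updated.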
smiles,measurement,setting,value
O=c1[nH]c(=O)n(C2CCCO2)cc1F (stereo not drawn),carcinogen call,"Species: MOUSE, Strain/Sex: C57BL/CBA/FEMALE, Route: GAVAGE, Dose: 0, 40 MG/KG IN 0.2 ML OF A STARCH/WATER SUSPENSION 2/WK FOR 12 MO (STUDY DURATION: LIFETIME)",inactive; negative
same,carcinogen call,"Species: MOUSE, Strain/Sex: C57BL/CBA/MALE, Route: GAVAGE, Dose: 0, 40 MG/KG IN 0.2 ML OF A STARCH/WATER SUSPENSION 2/WK FOR 12 MO (STUDY DURATION: LIFETIME)",inactive; negative
same,carcinogen call,"Species: RAT, Strain/Sex: WISTAR/FEMALE, Route: GAVAGE, Dose: 0, 60 MG/KG IN 0.5 ML OF A STARCH/WATER SUSPENSION 2/WK FOR 12 MO (STUDY DURATION: LIFETIME)",inactive; negative
same,carcinogen call,"Species: RAT, Strain/Sex: WISTAR/MALE, Route: GAVAGE, Dose: 0, 60 MG/KG IN 0.5 ML OF A STARCH/WATER SUSPENSION 2/WK FOR 12 MO (STUDY DURATION: LIFETIME)",inactive; negative
Nc1nc(-c2ccc([N+](=O)[O-])o2)cs1,carcinogen call,"Species: RAT, Strain/Sex: F344/FEMALE, Route: ORAL, Dose: 0.166% IN DIET FOR 52 WK, Tumor Site: Type of Lesion: FORESTOMACH: PAPILLOMA, CARCINOMA, URINARY BLADDER: PAPILLOMA, CARCINOMA",active; positive
same,carcinogen call,"Species: RAT, Strain/Sex: F344/MALE,FEMALE, Route: SUBCUTANEOUS, Dose: 10 MG/KG IN DMSO:WATER 1/WK FOR 8 WK, THEN 1.4 MG/RAT 1/WK FOR 46 WK, Tumor Site: Type of Lesion: INJECTION SITE: SARCOMA",active; positive
CC(C)NC(=O)N1CC(=O)N(c2cc(Cl)cc(Cl)c2)C1=O,carcinogen call,"Species: Mouse, Strain/Sex: CD-1/Female (50/Group), Route: Oral, Dose: 0, 160, 800, 4000 ppm of 95.7% iprodione in diet for 99 wk, study duration 99 wk, Dose: 0, 160, 800, 4000 ppm of 95.7% iprodione in diet for 99 wk, study duration 99 wk, Tumor Site: Type of Lesion: Liver: hepatocellular adenoma and carcinoma in high dose mice",active; positive
same,carcinogen call,"Species: Mouse, Strain/Sex: CD-1/Male (50/Group), Route: Oral, Dose: 0, 160, 800, 4000 ppm of 95.7% iprodione in diet for 99 wk, study duration 99 wk, Dose: 0, 160, 800, 4000 ppm of 95.7% iprodione in diet for 99 wk, study duration 99 wk, Tumor Site: Type of Lesion: Liver: hepatocellular adenoma and carcinoma in high dose mice",active; positive
same,carcinogen call,"Species: Rat, Strain/Sex: Sprague-Dawley/Female (60/Group), Route: Oral, Dose: 0, 8.4, 16.5, 95 mg/kg/day of 94.5-95.7% iprodione in diet for 104 wk, study duration 104 wk, Dose: 0, 8.4, 16.5, 95 mg/kg/day of 94.5-95.7% iprodione in diet for 104 wk, study duration 104 wk",inactive; negative
same,carcinogen call,"Species: Rat, Strain/Sex: Sprague-Dawley/Male (60/Group), Route: Oral, Dose: 0, 6.1, 12.4, 69 mg/kg/day of 94.5-95.7% iprodione in diet for 104 wk, study duration 104 wk, Dose: 0, 6.1, 12.4, 69 mg/kg/day of 94.5-95.7% iprodione in diet for 104 wk, study duration 104 wk, Tumor Site: Type of Lesion: Testes: Interstitial cell adenoma (high dose only)",active; positive
O=S(=O)(O)c1cc(S(=O)(=O)O)c2c(N=Nc3ccc(S(=O)(=O)O)c4ccccc34)c(O)ccc2c1,carcinogen call,"Species: RAT, Strain/Sex: WISTAR/FEMALE, Route: ORAL, Dose: 0, 50, 500, 1250 MG/KG/D IN DIET TO PUPS OF PARENTS GIVEN THE SAME DIETARY DOSE LEVELS FOR 60 D PRIOR TO MATING (STUDY D, Dose: 0, 50, 500, 1250 MG/KG/D IN DIET TO PUPS OF PARENTS GIVEN THE SAME DIETARY DOSE LEVELS FOR 60 D PRIOR TO MATING (STUDY D",inactive; negative
same,carcinogen call,"Species: RAT, Strain/Sex: WISTAR/MALE, Route: ORAL, Dose: 0, 50, 500, 1250 MG/KG/D IN DIET TO PUPS OF PARENTS GIVEN THE SAME DIETARY DOSE LEVELS FOR 60 D PRIOR TO MATING (STUDY D, Dose: 0, 50, 500, 1250 MG/KG/D IN DIET TO PUPS OF PARENTS GIVEN THE SAME DIETARY DOSE LEVELS FOR 60 D PRIOR TO MATING (STUDY D",inactive; negative
CCN(CC)CCNc1ccc(CO)c2sc3ccccc3c(=O)c12,carcinogen call,"Species: MOUSE, Route: INTRAMUSCULAR, Tumor Site: Type of Lesion: LIVER",active; positive
Nc1cc([N+](=O)[O-])ccc1O,carcinogen call,"Species: MOUSE, Strain/Sex: B6C3F1/FEMALE, Route: GAVAGE, Dose: 0, 125, 250 MG/KG IN CORN OIL 5D/WK FOR 103 WK (STUDY DURATION: 105 WK), Dose: 0, 125, 250 MG/KG IN CORN OIL 5D/WK FOR 103 WK (STUDY DURATION: 105 WK)",inactive; negative
same,carcinogen call,"Species: MOUSE, Strain/Sex: B6C3F1/MALE, Route: GAVAGE, Dose: 0, 125, 250 MG/KG IN CORN OIL 5D/WK FOR 103 WK (STUDY DURATION: 105 WK), Dose: 0, 125, 250 MG/KG IN CORN OIL 5D/WK FOR 103 WK (STUDY DURATION: 105 WK)",inactive; negative
same,carcinogen call,"Species: RAT, Strain/Sex: F344/FEMALE, Route: GAVAGE, Dose: 0, 125, 250 MG/KG IN CORN OIL 5D/WK FOR 103 WK (STUDY DURATION: 105 WK), Dose: 0, 125, 250 MG/KG IN CORN OIL 5D/WK FOR 103 WK (STUDY DURATION: 105 WK)",inactive; negative
same,carcinogen call,"Species: RAT, Strain/Sex: F344/MALE, Route: GAVAGE, Dose: 0, 125, 250 MG/KG IN CORN OIL 5D/WK FOR 103 WK (STUDY DURATION: 105 WK), Dose: 0, 125, 250 MG/KG IN CORN OIL 5D/WK FOR 103 WK (STUDY DURATION: 105 WK), Tumor Site: Type of Lesion: PREPUTIAL GLAND: ADENOMA OR CARCINOMA",active; positive
CCN(N=O)C(C)=O,carcinogen call,"Species: MOUSE, Strain/Sex: BALB/C/MALE, Route: ORAL, Dose: 0, 1000, 2000 PPM IN DRINKING WATER FOR 2 WK (STUDY DURATION: 52 WK), Dose: 0, 1000, 2000 PPM IN DRINKING WATER FOR 2 WK (STUDY DURATION: 52 WK), Tumor Site: Type of Lesion: LUNG: TUMOR",active; positive
same,carcinogen call,"Species: RAT, Strain/Sex: WISTAR/MALE, Route: ORAL, Dose: 0, 1000, 2000 PPM IN DRINKING WATER FOR 2 WK (STUDY DURATION: 52 WK), Dose: 0, 1000, 2000 PPM IN DRINKING WATER FOR 2 WK (STUDY DURATION: 52 WK)",inactive; negative
C=COC(N)=O,carcinogen call,"Species: MOUSE, Strain/Sex: B6C3F1/MALE, Route: INTRAPERITONEAL, Dose: 0, 2.5 UG/G BW IN 10 µL TRIOCTANOIN ONCE (STUDY DURATION: 9 MO), Tumor Site: Type of Lesion: LIVER: HEPATOMA",active; positive
same,carcinogen call,"Species: MOUSE, Strain/Sex: CD-1/FEMALE, Route: DERMAL, Dose: 0, 11.5 UMOL IN WEEKS 1 AND 2 THEN 5.7 UMOL IN WEEKS 3 AND 4 FOLLOWED BY 3.8 UMOL/WK FOR 28 WK (STUDY DURATION: 42 WK), Tumor Site: Type of Lesion: SKIN: PAPILLOMA, CARCINOMA",active; positive
same,carcinogen call,"Species: MOUSE, Strain/Sex: STRAIN-A/FEMALE, Route: INTRAPERITONEAL, Dose: 0, 34, 68 NMOL/G BW IN 5 µL TRIOCTANOIN ONCE (STUDY DURATION: 6 MO), Dose: 0, 34, 68 NMOL/G BW IN 5 µL TRIOCTANOIN ONCE (STUDY DURATION: 6 MO), Tumor Site: Type of Lesion: LUNG: ADENOMA",active; positive
same,carcinogen call,"Species: RAT, Strain/Sex: SPRAGUE-DAWLEY/FEMALE, Route: INTRAMUSCULAR, Dose: 0, 1.15, 2.3 UMOL IN 0.25 ML TRIOCTANOIN 1/WK FOR 10 WK (STUDY DURATION: 18 MO), Dose: 0, 1.15, 2.3 UMOL IN 0.25 ML TRIOCTANOIN 1/WK FOR 10 WK (STUDY DURATION: 18 MO)",inactive; negative
